From patent US20250163522A1, “METHODS FOR PRESERVING HEALTHY INTESTINAL MICROBIOME DURING GROWTH PROMOTER ADMINSTRATION” (BIOMEDIT, LLC, priority 2022, published 2025)
“Also recorded” adds a separate entry of the source.

Legend:
Assay type in all cases: in vivo, chickens (Gallus gallus)
Ross 708 male broilers = experiment: Clinical study of in-feed AGPs in broilers: weight gain and feed conversion; conditions: in-feed: 50 g/ton BMD, 20 g/ton avilamycin, 16.5 g/ton virginiamycin, 70 g/ton narasin; 35 days
Source text: 500 healthy Ross 708 male broilers sourced from a commercial hatchery were used in the experiment. […] Birds were individually tagged with a unique identifier and were randomly assigned to one of 25 floor pens (20 animals per pen). Groups of 5 pens were assigned to each of 5 different treatments. The 5 treatments included: 1) control birds fed least-cost diets as follows: A starter diet was fed from days 0 to 14 of the study, followed by a grower diet (14-28d) and a finisher diet (28-35d). 2) Birds fed the above diets supplemented with 50 g/ton BMD. 3) Supplemented with 20 g/ton avilamycin. 4) Supplemented with 16.5 g/ton Virginiamycin. And 5) supplemented with 70 g/ton narasin. Birds were raised for 35 days in a barn on top of used litter.
Individual body weights were collected on days 0, 7, 21 and 35. Pen weights were collected on days 14 and 28. Feed weigh backs for each pen were done on days 7, 14, 21, 28 and 35 of the study. Average bird weights and feed intake per pen were used to calculate weekly values of average daily gain and feed conversion ratios. Weekly values were compared between treatments using the Mann Whitney U test. On days 7, 21 and 35 three birds per pen were randomly selected and euthanized for the collection of cecal contents and blood. Blood was collected via wing vein venipuncture, except for birds that were too small, in which cases direct heart puncture was used. In both cases, blood was collected into vacutainer tubes and centrifuged to obtain serum. Cecal samples were collected by aseptically squeezing the cecum content into a sterile tube. Cecal samples were placed on dry ice immediately after collection. All samples were stored at −80° C. until processing.

[1] = tested on: AMR genes in the cecum microbiome; experiment: AMR gene abundance analysis (AMR++ pipeline) of cecal microbiome; conditions: day 35 cecum; for AMR gene classes changed compared to controls: Mann-Whitney U p-value<0.05; for total number of different AMR genes detected: compared to control; for total AMR gene abundance compared to control: RPKM
Description: AMR gene abundances per sample were determined using the AMR++ pipeline (Lakin, S. M. et al., Nucleic Acids Res 45, D574-D580 (2017)) (v. 2.0.2) starting from the raw metagenomics sequences and using the MegaRes (v. 2.0.0) database. Only genes involved in drug resistance were considered. The AMR gene counts per sample obtained from AMR++ were expressed in unites of reads per kilobase per million reads (RPKM) based on the corresponding gene lengths from the MegaRes database. RPKM values across treatments were compared using the Mann-Whitney U test.

cecal microbiome [2] = experiment: Shotgun metagenomics (functional/taxonomic profiles, GSEA) of cecal microbiome, day 35 broilers; conditions: for functional processes enriched in cecal microbiome relative to controls (GSEA): day 35 cecal samples
Description: 74 frozen cecal samples from day 35 birds were sent to CosmosID (Rockville, MD) for shotgun metagenomics sequencing. DNA was extracted using the ZymoBIOMICS DNA Miniprep Kit (ZymoBIOMICS, Irvine, CA) according to the manufacturers protocol. The isolated DNA was quantified by Qbit (ThermoFisher, Coon Rapids, MN). DNA libraries were prepared using the Illumina Nextera XT library preparation kit (Illumina, San Diego, CA), with a modified protocol. Libraries were then sequenced on an Illumina HiSeq platform 2×150 bp.
Reads were trimmed and Illumina adapters removed using Trimmomatic (v 0.39) (Bolger et al., Bioinformatics 30, 2114-2120 (2014)) with options SLIDINGWINDOW:5:20 LEADING:3 TRAILING:3. Host reads (Gallus gallus, GenBank assembly GCA_000002315) and spike-in reads from Vibrio harveyii (ATCC 14126) were removed using Bowtie2 (v. 2.3.5.1) (Langmead et al., Nat Methods 9, 357-359 (2012)).
Taxonomic profiling of individual reads was carried out using Kaiju (v. 1.7.3) (Menzel et al., Nat Commun 7, 11257 (2016)) with the nr_euk database. Kaiju outputs were summarized for each read as the number of bases aligned to proteins in the reference database. In cases of individual reads mapping to more than one taxonomic group, the number of bases assigned to each taxon was calculated as the alignment length (in base pairs) multiplied by the fraction of bases assigned unambiguously to said taxon out of all the taxa to which the read mapped. The numbers of assigned bases per read were used to estimate species-level relative abundances using metametamerge (v. 1.1) (Piro, V. C., et al., Microbiome 5, 101 (2017).) taking into account the average coding length per species in the nr_euk database.
Functional profiling was done by first assembling the reads from each sample into contigs using Spades (v. 3.13.1, option --meta) (Nurk, S. et al., Genome Res 27, 824-834 (2017)), with default parameters, followed by protein prediction with Prokka (v. 1.14.5) (Seemann, T. Prokka: Bioinformatics 30, 2068-2069 (2014).). Predicted protein sequences were aligned to a reference database and using Diamond (v. 0.9.30) (Buchfink, B. et al. Nat Methods 18, 366-368 (2021)) and annotated based on the function assigned to the top hit in the database. To avoid misannotations, (Plata, G. et al. Nat Chem Biol 8, 848-854 (2012)) the inventors only considered hits with at least 70% identity and 70% query coverage. The reference database was built starting from 46,181 complete bacterial genomes downloaded from the PATRIC (Davis, J. J. et al. Nucleic Acids Res 48, D606-D612 (2020)) database representing at most 10 genomes per species from ˜400 taxonomic families including those most frequently observed in broiler microbiomes. To speed up functional annotations, protein sequences within each family in the database were clustered at 90% sequence identity using CD-HIT (v. 4.8.1) (Huang, Y. et al. Bioinformatics 26, 680-682 (2010)) and the longest sequence from each cluster was kept for the diamond search.
To quantify the abundance of each function per sample, reads were mapped to the corresponding contigs using BWA (v. 0.7.17) (Li, H. & Durbin, R. Bioinformatics 25, 1754-1760 (2009)), and reads mapping to each predicted protein were counted with HTseq (v. 0.11.3) (Anders, S. et al. Bioinformatics 31, 166-169 (2015)). Read counts per RAST functional role were TPM normalized based on the Prokka protein lengths (Zhao, S. et. al. RNA 26, 903-909 (2020)) and expressed in units of mean copy numbers per genome by calculating a normalization factor such that the median abundance of a set of universal-single copy bacterial genes (Creevey, C. J. et al. PLOS One 6, e22099 (2011)) was set to 1 (Manor, O. & Borenstein, E. Genome Biology 16, 53 (2015)). A similar procedure was used to produce a copy-number normalized matrix of functional roles across samples stratified by the bacterial genera of the protein hits used to transfer functional annotations. […]

cecal microbiome [3] = experiment: 16S rRNA amplicon profiling of cecal microbiome of AGP treated broilers; conditions: days 21 and 35
Description: Total DNA from frozen cecal content samples were extracted using the Lysis and Purity kit (Shoreline Biome, Farmington, CT) following the manufacturer's protocol. The resulting DNA was used for library preparation with the Shoreline Biome V4 16S DNA Purification and Library Prep Kit (Shoreline Biome, Farmington, CT). PCR amplification of the V4 region of the 16S rRNA gene was performed using the 515F (5′[…]) and 806R (5′-[…]) primers. The resulting amplicons were then sequenced using 2×250 bp paired-end kits on the Illumina MiSeq platform.
Paired raw reads were processed with cutadapt (v. 2.5) (Martin, M. Cutadapt 2011 17, 3, doi: 10.14806/ej. 17.1.200 (2011)) followed by DADA2 (v.1.12.1) (Callahan et al., Nat Methods 13, 581-581 (2016)) to generate a matrix of read counts per sample at the level of amplicon sequence variants (ASVs). […] Reads assigned to the Vibrionaceae family were removed from the analysis, these correspond to a small amount (˜1% relative abundance) of Vibrio harveyii that was spiked in some of the samples. The mean sequencing depth after filtering was 43,955 reads per sample (standard deviation=12,391). The Chao, Simpson, and Shannon measures of alpha diversity were calculated from the matrix of raw counts using the scikit-bio (v. 0.5.6) python package and compared across treatments at each sampling time using the Mann-Whitney U test. […]

Compound: COC[C@H]1O[C@@H](OC2OC[C@@H]3O[C@]4(O[C@H]3[C@H]2OC(=O)C(C)C)O[C@H](C)[C@@](O)(C(C)=O)[C@@H]2OCO[C@H]24)[C@@H](OC)[C@@H](O)[C@@H]1O[C@@H]1O[C@H](C)[C@H](OC)[C@H](O[C@H]2C[C@@]3(C)OC4(C[C@@H](O)[C@H](O[C@H]5C[C@@H](O)[C@H](OC(=O)c6c(C)c(Cl)c(O)c(Cl)c6OC)[C@@H](C)O5)[C@@H](C)O4)O[C@@H]3[C@@H](C)O2)[C@H]1O (stereo partly drawn) [avilamycin]
- impact on bird performance (Ross 708 male broilers): smallest effects on performance
- effect on AMR gene abundance profiles [1]: minor
- AMR gene classes changed compared to controls [1]: reduced the abundance of genes associated with resistance to nucleosides and macrolides
- total number of different AMR genes detected [1]: higher
- functional processes enriched in cecal microbiome relative to controls (GSEA) (cecal microbiome [2]): protein synthesis and the Entner-Doudoroff pathway; also recorded: methionine metabolism, glycolysis, sporulation, and isoprenoid synthesis
- similarity of 16S cecal microbiome composition to control samples (ANOSIM R score) (cecal microbiome [3]): higher similarity

Compound: Bacitracin methylene disalicylate [BMD]
- impact on bird performance (Ross 708 male broilers): smallest effects on performance
- effect on AMR gene abundance profiles [1]: minor
- total AMR gene abundance compared to control [1]: significant increase
- functional processes enriched in cecal microbiome relative to controls (GSEA) (cecal microbiome [2]): biotin synthesis; also recorded: propanediol utilization, molybdenum-containing cofactor synthesis and CO2 fixation via the Wood-Ljungdahl pathway; also recorded: protein synthesis and the Entner-Doudoroff pathway
- similarity of 16S cecal microbiome composition to control samples (ANOSIM R score) (cecal microbiome [3]): higher similarity

Compound: virginiamycin
- impact on bird performance (Ross 708 male broilers): increased performance compared to controls
- effect on AMR gene abundance profiles [1]: significantly different AMR gene abundance profiles
- AMR gene classes changed compared to controls [1]: enriched (Mann-Whitney U p-value<0.05) for genes involved in resistance to multiple drugs
- total AMR gene abundance compared to control [1]: significant increase
- total number of different AMR genes detected [1]: higher
- Salmonella and Escherichia relative abundance in cecum (cecal microbiome [2]; day 35): ~50%
- functional processes enriched in cecal microbiome relative to controls (GSEA) (cecal microbiome [2]): betaine and pyridoxine biosynthesis, stress response, bacterial secretion systems, antimicrobial resistance (AMR), and biosynthesis of Gram-negative cell wall components
